{"source": "patent US8980933B2", "about": "“Combretastatin analogs for use in the treatment of cancer” (Universitat Bayreuth, priority 2010, dated 2015)", "key": {"[1]": {"test_system": "H12.1 germ cell tumor, 1411HP germ cell tumor, A2780 ovarian carcinoma, HT29 colon carcinoma, DLD1 colon carcinoma, HCT8 colon carcinoma", "test": "SRB-cytotoxicity assay in a panel of tumor cell lines", "assay_type": "cell-based, human", "details": "H12.1, 1411HP", "method": "The cytotoxic activity of 5b was established by standard colorimetric tests (SRB- and MTT-assays) against various tumor cell lines of different entities. For the SRB cytotoxicity assay, dose-response curves of the testicular germ cell tumor cell lines exposed to drug concentrations of 0.001-10 μM were established using the sulforhodamine-B (SRB) microcuiture colorimetric assay (Papazisis et al. Optimization of the sulforhodamine B colorimetric assay. J. Immunol. Methods 1997, 208, 151-158) and performed as described in: Müller et al. Failure of activation of caspase-9 induces a higher threshold for apoptosis and cisplatin resistance in testicular cancer. Cancer Res. 2003, 63, 513-521. Briefly, cells were seeded into 96-well plates on day 0, at cell densities previously determined to ensure exponential cell growth during the period of the experiment. On day 1, cells were treated with the drugs dissolved in medium to give the appropriate concentrations for indicated times and the percentage of surviving cells relative to untreated controls was determined on day 5.\nThe compounds 5b, 6b, 5f and 6f as well as the reference compound 25f (Wang et al.) were furthermore subjected to an SRB-cytotoxicity assay in a panel of tumor cell lines (H12.1 germ cell tumor, 1411HP germ cell tumor, A2780 ovarian carcinoma, HT29 colon carcinoma, DLD1 colon carcinoma, HCT8 colon carcinoma)."}, "[2]": {"test_system": "1411HP germ cell tumor xenografts", "test": "Nude mouse xenograft model of resistant 1411HP", "assay_type": "in vivo", "details": "1411HP xenograft model", "method": "In vivo antitumor activity and tolerability of compounds 5b and 6b of the invention were studied in a nude mouse xenograft model of the resistant germ cell tumor cell line 1411HP employing Athymic Nude-Fox n1 nu/nu mice (Harlan und Winkelmann, Borchen, Germany).\nThe tests were carried out as follows. The mice were kept under pathogen-free conditions, fed on an autoclaved standard diet and given free access to sterilized water. Each of five mice were administered a 150 μL phosphate buffered saline suspension of 10 million 1411HP cells into the left flank to generate subcutaneous xenograft tumors. After 4 weeks one group of two mice bearing 1411HP xenografts with a volume of ca. 1 cm^3 were injected i.p. with a single dose of 30 mg/kg body weight of 5b or 6b, respectively. Two mice in the second group with xenografts of a volume of ca. 2.5 cm^3 were injected i.p. with 20 mg/kg body weight of 5b on two consecutive days. Tumor volumes were calculated by caliper measurement using the formula a^2×b×0.5 with a being the short and b the long dimension. Body weight was assessed twice weekly and daily while under therapy."}, "[3]": {"test_system": "A2780 ovarian carcinoma xenografts", "test": "A2780 ovarian carcinoma xenograft model", "assay_type": "in vivo, mouse"}, "[4]": {"test": "Toxicity / tolerability in mice", "assay_type": "in vivo", "method": "Prior to testing compound 5b, healthy animals of this type were treated with an ascending range of doses of 5b in order to establish a toxicity profile. […] Suitable dosages were then administered in further tests in a nude mouse xenograft model of a pair of germ cell tumor cell lines, the chemoresistant cell line 1411HP and the chemosensitive cell line H12.1. These cell lines retain their individual in vitro chemosensitivities to cisplatin when grown as xenograft tumors and so may serve as a model of the clinical situation of resistance to chemotherapy (Mueller et al. Cancer Res. 2003; Mueller et al. Tumor Biol. 2006).\nCompounds 5b, 6b and 6f were also tested in terms of feasibility of oral administration. Mice received a single dose of 40 mg/kg body weight of 5b, 6b or 6f, respectively. […] Then compounds 6b or 6f were given peroral as dual-dose application on two consecutive days in accordance to the i.p. treatment scheme used for the regression trials but with a 2-fold higher dose of 2×40 mg/kg body weight."}, "[5]": {"test_system": "KB-V1/Vbl cervical carcinoma cells", "test": "MTT cell growth inhibition, KB-V1/Vbl", "assay_type": "cell-based, human", "details": "KB-V1/Vbl (Pgp+)", "method": "The MCF-7/Topo cells were grown in E-MEM medium (Sigma) supplemented with 2.2 g/L NaHCO3, 110 mg/L sodium pyruvate and 5% FCS. The cells were maintained in a moisture-saturated atmosphere (5% CO2) at 37° C. in 75-mL culture flasks (Nunc, Wiesbaden, Germany). They were serially passaged following trypsinisation by 0.05% trypsin/0.02% EDTA (PAA laboratories, Clbe, Germany). Mycoplasma contamination was routinely monitored, and only mycoplasma-free cultures were used.\nHL-60 leukemia cells (5×10^5/mL), and cells (5×10^4/mL) of 518A2 melanoma, HT-29 colon, KB-V1/Vbl cervix and MCF-7/Topo breast carcinoma were seeded out in 96-well tissue culture plates and cultured for 24 h. […] Blank and solvent controls were treated identically. MTT in phosphate buffered saline (5 mg/mL) was added to a final concentration of 0.05% (HL-60, 518A2) or 0.1% (HT-29, KB-V1/Vbl, MCF-7/Topo). After 2 h the formazan precipitate was dissolved in 10% sodium dodecylsulfate in DMSO containing 0.6% acetic acid in the case of the HL-60 cells. For the adherent 518A2, KB-V1/Vbl, MCF-7/Topo and HT-29 cells the microplates were swiftly turned to discard the medium before adding the solvent mixture. The microplates were gently shaken in the dark for 30 min and absorbance at 570 nm and 630 nm (background) was measured with an ELISA plate reader. All experiments were carried out in quadruplicate; the percentage of viable cells was calculated as the mean±SD with controls set to 100%."}, "[6]": {"test_system": "MCF-7/Topo breast carcinoma cells", "test": "MTT cell growth inhibition, MCF-7/Topo", "assay_type": "cell-based, human", "details": "MCF-7/Topo (BCRP+)", "method": "The effects of the compounds 5b, 6b, 8a, and 8e according to the present invention and of the reference compound 25f (Wang et al., J. Med. Chem. 2002, 45, 1697-1711) on cells of the following human tumor cell lines were evaluated: 518A2 melanoma, HL-60 leukemia, HT-29 colon carcinoma, KB-V1/Vbl cervical carcinoma, and MCF-7/Topo breast carcinoma.\nThe HL-60 cells were obtained from the German Collection of Biological Material (DSMZ), Braunschweig, Germany; the human 518A2 melanoma cells as well as the testicular germ cell tumor cell lines H12.1 and 1411HP were cultured in the department of oncology and hematology, Medical Faculty of the Martin-Luther University, Halle, Germany; the KBV1/Vbl and the MCF-7/Topo cells were obtained from the Institute of Pharmacy of the University Regensburg, Germany; and the colon HT-29 cells from the University Hospital Erlangen, Germany. The HL-60 and the HT-29 cells were grown in RPMI-1640 medium supplemented with 10% fetal calf serum (FCS), 100 IU/mL penicillin G, 100 μg/mL streptomycin sulfate, 0.25 μg/mL amphotericin B and 250 μg/mL gentamycine (all from Gibco, Egenstein, Germany). The 518A2 and the KB-V1/Vbl cells were cultured in Dulbecco's Modified Eagle Medium (D-MEM, Gibco) containing 10% FCS, 100 IU/mL penicillin G, 100 μg/mL streptomycin sulfate, 0.25 μg/mL amphotericin B and 250 μg/mL gentamycine. The MCF-7/Topo cells were grown in E-MEM medium (Sigma) supplemented with 2.2 g/L NaHCO3, 110 mg/L sodium pyruvate and 5% FCS. The cells were maintained in a moisture-saturated atmosphere (5% CO2) at 37° C. in 75-mL culture flasks (Nunc, Wiesbaden, Germany). They were serially passaged following trypsinisation by 0.05% trypsin/0.02% EDTA (PAA laboratories, Clbe, Germany). Mycoplasma contamination was routinely monitored, and only mycoplasma-free cultures were used.\nMTT [3-(4,5-dimethylthiazol-2-yl)-2,5-diphenyltetrazolium bromide](ABCR) was used to identify viable cells which reduce it to a violet formazan (Mosmann, J. Immunol. Methods 1983, 65, 55-63). HL-60 leukemia cells (5×10^5/mL), and cells (5×10^4/mL) of 518A2 melanoma, HT-29 colon, KB-V1/Vbl cervix and MCF-7/Topo breast carcinoma were seeded out in 96-well tissue culture plates and cultured for 24 h. Incubation (5% CO2, 95% humidity, 37° C.) of the cells following treatment with the test compounds was continued for 24, 48 or 72 h. Blank and solvent controls were treated identically. […] The microplates were gently shaken in the dark for 30 min and absorbance at 570 nm and 630 nm (background) was measured with an ELISA plate reader. All experiments were carried out in quadruplicate; the percentage of viable cells was calculated as the mean±SD with controls set to 100%."}, "[7]": {"test_system": "518A2 cells", "test": "ROS generation, NBT assay, 518A2", "assay_type": "cell-based, human", "details": "50 μM, relative to untreated controls (1%), mean ± SD", "method": "(§1) The generation of reactive oxygen species (ROS) in tumor cells is a sign of cellular stress resulting in severe damage of cellular components such as DNA, lipids or proteins.\n(§2) For the NBT assay, HL-60 cells (0.5·10^6/mL) were plated in 96-well tissue culture plates, and test compounds were added after 24 h incubation at 37° C. to achieve a final concentration of 50 μM. […] After removal of the cell medium by centrifugation, the cells in each well were resuspended in 100 μL 0.1% NBT, and the plates were placed in the incubator for 1 h. The reduced NBT was solubilized with 100 μl 2 M KOH and 130 μl DMSO for 30 min. The absorbance was measured for each well at 630 and 405 nm (background) using an ELISA plate reader. The adherent 518A2 cells (0.5·10^4/mL) were seeded out in 96-well tissue culture plates after trypsinization and incubation for 24 h at 37° C. to allow attachment, then treated similarly, only that the medium was removed prior to incubation with NBT for 4 h. All experiments were carried out in quadruplicate."}, "[8]": {"test_system": "HL-60 cells", "test": "ROS generation, NBT assay, HL-60", "assay_type": "cell-based, human", "details": "50 μM, relative to untreated controls (1%), mean ± SD", "method": "as §1, §2"}, "[9]": {"test_system": "518A2 cells", "test": "Mitochondrial membrane assay (JC-1), 518A2", "assay_type": "cell-based, human", "details": "5 μM, red/green fluorescence ratio relative to untreated controls (100%), mean ± SD", "method": "(§3) Values represent means of four independent experiments±standard deviation.\n(§4) Changes in mitochondrial membrane potential were determined by the Mitochondrial Membrane Detection Kit (Stratagene, La Jolla, Calif., USA) according to the manufacturer's procedure. 72 h following treatment with 5 μM of the test compounds, cell samples were centrifuged at 400 g for 5 min. The pellets were resuspended in 500 μL diluted JC-1 solution, incubated at 37° C. for 15 min (HL-60) and then centrifuged again for 5 min at 400 g. After washing, the pellets were resuspended in 100 μL PBS and transferred into the wells of a black 96-well plate. The red (λex=585 nm, λem=590 nm) and green (λex=510 nm, λem=527 nm) fluorescence intensities were measured and their ratio was calculated."}, "[10]": {"test_system": "HL-60 cells", "test": "Mitochondrial membrane assay (JC-1), HL-60", "assay_type": "cell-based, human", "details": "5 μM, red/green fluorescence ratio relative to untreated controls (100%), mean ± SD", "method": "as §3, §4"}}}
{"smiles": "CCOc1ccc(-c2c(-c3cc(Cl)c(OC)c(OC)c3)ncn2C)cc1N", "note": "[compound 5f, 1-methyl-5-(3-amino-4-ethoxyphenyl)-4-(3-chloro-4,5-dimethoxyphenyl)-imidazole]", "values": [{"measurement": "in vitro cytotoxicity compared to 25f", "setting": "[1]", "value": "further improvement of cytotoxicity"}, {"measurement": "vascular disrupting effect", "setting": "[2]", "value": "vascular disrupting activity"}, {"measurement": "vascular disrupting effect", "setting": "[3]", "value": "vascular disrupting activity"}]}
{"smiles": "CCOc1ccc(-c2c(-c3cc(Br)c(OC)c(OC)c3)ncn2C)cc1N", "note": "[compound 6f, 1-methyl-5-(3-amino-4-ethoxyphenyl)-4-(3-bromo-4,5-dimethoxyphenyl)-imidazole]", "values": [{"measurement": "in vitro cytotoxicity compared to 25f", "setting": "[1]", "value": "further improvement of cytotoxicity"}, {"measurement": "vascular disrupting effect", "setting": "[2]", "value": "vascular disrupting activity"}, {"measurement": "vascular disrupting effect", "setting": "[3]", "value": "vascular disrupting activity"}, {"measurement": "toxicity after oral administration", "setting": "[4]; peroral dual-dose 2×40 mg/kg on two consecutive days", "value": "no signs of toxicity were observed"}, {"measurement": "toxicity after oral administration", "setting": "[4]; single dose 40 mg/kg oral", "value": "No signs of toxicity were observed"}, {"measurement": "toxicity after oral administration", "setting": "[4]; single dose 60 mg/kg peroral", "value": "tolerated symptom-free"}]}
{"smiles": "COc1cc(-c2ncn(C)c2-c2ccc3c(c2)c(Cl)cn3C)cc(N)c1OC", "note": "[compound 8e, 1-methyl-4-(3-amino-4,5-dimethoxyphenyl)-5-(N-methyl-3-chloroindol-5-yl)-imidazole]", "values": [{"measurement": "efficacy (comparison)", "setting": "[5]", "value": "greater efficacy than 25f and 5b/6b"}, {"measurement": "cytotoxicity / efficacy (comparison)", "setting": "[6]", "value": "greater efficacy than 25f and 5b/6b"}, {"measurement": "NBT Reduction [%] in 518A2 cells after 24 h", "setting": "[7]", "value": "1.6 ± 0.3", "unit": "%"}, {"measurement": "NBT Reduction [%] in HL-60 cells after 24 h", "setting": "[8]", "value": "6.4 ± 0.3", "unit": "%"}, {"measurement": "Intact mitochondria [%] in 518A2 cells after 72 h", "setting": "[9]", "value": "77 ± 8", "unit": "%"}, {"measurement": "Intact mitochondria [%] in HL-60 cells after 72 h", "setting": "[10]", "value": "60 ± 15", "unit": "%"}]}
